The source of these data is US20240408169A1 (priority 2023, published 2024).

The GI50 is the concentration that inhibits growth by half. Read a low GI50 as greater sensitivity of the cells. The term IC50 denotes the concentration needed to halve the response being measured.

One assay deals with OVCAR3 cells. Kind of assay: MTT proliferation assay, OVCAR3.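 Note: compound given as an 8- or 10-point series, one day after plating, with exposure covering roughly 3-4 cell doublings.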 Format: cell-based. The following applies: 5 days compound exposure, 1:3 serial dilution starting at 10 μM. Background: Tetrazolium dyes change colour on reduction, which living cells bring about.
In another assay the target is T1, CyclinA2/CDK2 (Homo sapiens, UniProt P20248).
T1 construct: purchased CRELUX Protein Services
Kind of assay: Fluorescence Polarization (FP) competitive binding assay, Cyclin A2/Cdk2.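 Note: plates equilibrated two hours at room temperature before polarization reading, IC50 fitted from eight-concentration compound titration curves.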 To be noted: 8 nM Cyclin A2/Cdk2, 2 nM FAM probe; average of 2-3 independent experiments; read-out: Cyclin A FP IC50. (In general: Polarisation of emitted light reports the rotation of a fluorescent probe.)

For a further assay, the target named is T2, CyclinB1/CDK1 (Homo sapiens, UniProt P14635).
T2 construct: purchased Eurofins, discovery 14-450
Kind of assay: Fluorescence Polarization (FP) competitive binding assay, Cyclin B1/Cdk1.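 Note: fluorescence polarization read after equilibration at room temperature, with IC50 taken from serially diluted dose-response curves.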 The following applies: 10 nM Cyclin B1/Cdk1, 2 nM FAM probe; average of 2-3 independent experiments; read-out: Cyclin B FP IC50.

The next assay concerns WI-38 cells. Kind of assay: MTT proliferation assay, WI-38.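 Note: Eight- or ten-point dilution series, with exposure length chosen to span about three to four cell doublings.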 Format: cell-based. To be noted: 3 days compound exposure, 1:3 serial dilution starting at 10 μM.
For another assay, the target named is T3, CyclinE1/CDK2 (Homo sapiens, UniProt P24864).
T3 construct: purchased Eurofins, discovery 14-475
Kind of assay: Fluorescence Polarization (FP) competitive binding assay, Cyclin E1/Cdk2.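 Note: readings taken after two-hour equilibration at room temperature in HEPES buffer with NaCl, DTT, NP-40 and BSA, IC50 fitted from eight-concentration serial dilution series.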 The following applies: 10 nM Cyclin E1/Cdk2, 2 nM FAM probe; average of 2-3 independent experiments; read-out: Cyclin E FP IC50.

The next assay has as its system NCI-H1048 cells. Kind of assay: MTT proliferation assay, NCI-H1048.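 Note: Dose-response in 96-well plates over 8 or 10 concentration points, with exposure spanning 3-4 cell doublings.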 Format: cell-based. To be noted: 5 days compound exposure, 1:3 serial dilution starting at 10 μM.

Each structure is given as a SMILES string. *1 amine or outer side, *2 acyl side, *3 side chain or, on linkers, in order; H or OH if unused. Where a SMILES comes first, the peptide text is derived from it. Bridges are numbered along the chain shown (N, C = ends). [ ]: non-standard residue; d: D form. The star is where a group is joined. NMePhe(2-(4-MorPh),5-Cl) = CN[C@@H](Cc1cc(Cl)ccc1-c1ccc(N2CCOCC2)cc1)C(=O)O; X42 = CN([C@@H](Cc1cc(Cl)ccc1-c1cnn(S(=O)(=O)C2CC2)c1)C(=O)[*:2])[*:1]; X46 = CN([C@@H](Cc1cc(Cl)ccc1-c1ccc(S(C)(=O)=O)cc1)C(=O)[*:2])[*:1]; X18 = CC(=O)N1CCC(=Cc2ccc(Cl)cc2C[C@@H](C(=O)[*:2])N(C)[*:1])CC1; X76 = CN([C@@H](Cc1cc(Cl)ccc1-c1cnn2cccnc12)C(=O)[*:2])[*:1]; NMehhhLys(Me) = CN([C@@H](CCCCCCCN(C)[*:3])C(=O)[*:2])[*:1]; X64 = CN([C@@H](Cc1cc(Cl)ccc1OC1(C)CC1)C(=O)[*:2])[*:1]; X66 = CN([C@@H](Cc1cc(Cl)ccc1-c1cccnc1)C(=O)[*:2])[*:1]; NMe(hhhLys) = CN([C@@H](CCCCCCCN[*:3])C(=O)[*:2])[*:1]; NMe3Pal(2-OMe,5-Cl) = CN[C@@H](Cc1cc(Cl)cnc1OC)C(=O)O; Oxane2carbonyl(2R-CF3) = O=C([C@@]1(C(F)(F)F)CCCCO1)*; cBuCO(3,3-F2-1-CF3) = O=C(C1(C(F)(F)F)CC(F)(F)C1)*; X4 = Cc1ccc(Cl)cc1C[C@@H](C(=O)[*:2])N(C)[*:1]; Pro(trans-4-F) = O=C(O)[C@@H]1C[C@@H](F)CN1; Gly(cPr) = N[C@H](C(=O)O)C1CC1

Consider `CC(C)C[C@@H]1NC(=O)[C@@H](N(C)C(=O)[C@@H](NC(=O)[C@@H]2C[C@@H](F)CN2C(=O)C2(C(F)(F)F)CC(F)(F)C2)C2CC2)CCCCCCCN(C)C(=O)[C@H](Cc2cc(Cl)ccc2OC2(C)CC2)N(C)C1=O` [Example 259] ({cBuCO(3,3-F2-1-CF3)}-[Pro(trans-4-F)][Gly(cPr)][NMehhhLys(Me)]L[X64]; lactam 3-C), for which the figures for the GI50 in the assay with OVCAR3 cells, in the assay with WI-38 cells and with NCI-H1048 cells were 110 nM, 10400 nM and 110 nM, respectively. Moreover, the figures for the IC50 at CyclinA2/CDK2, on CyclinB1/CDK1 and at CyclinE1/CDK2 were 70 nM, 20 nM and 280 nM, respectively.
With `CC(C)C[C@@H]1NC(=O)[C@@H](N(C)C(=O)[C@@H](NC(=O)[C@@H]2C[C@@H](F)CN2C(=O)[C@@]2(C(F)(F)F)CCCCO2)C2CC2)CCCCCCCN(C)C(=O)[C@H](Cc2cc(Cl)ccc2OC2(C)CC2)N(C)C1=O` [Example 260] ({Oxane2carbonyl(2R-CF3)}-[Pro(trans-4-F)][Gly(cPr)][NMehhhLys(Me)]L[X64]; lactam 3-C), the GI50 with OVCAR3 cells worked out at 40 nM; with WI-38 cells, 6390 nM; in the assay with NCI-H1048 cells, 40 nM. The IC50 came to 50 nM at CyclinA2/CDK2, 20 nM on CyclinB1/CDK1 and 100 nM at CyclinE1/CDK2.
Consider `CC(C)C[C@@H]1NC(=O)[C@@H](N(C)C(=O)[C@@H](NC(=O)[C@@H]2C[C@@H](F)CN2C(=O)C2(C(F)(F)F)CC(F)(F)C2)C2CC2)CCCCCCCN(C)C(=O)[C@H](Cc2cc(Cl)ccc2-c2ccc(N3CCOCC3)cc2)N(C)C1=O` [Example 261] ({cBuCO(3,3-F2-1-CF3)}-[Pro(trans-4-F)][Gly(cPr)][NMehhhLys(Me)]L[NMePhe(2-(4-MorPh),5-Cl)]; lactam 3-C), for which the GI50 in the assay on OVCAR3 cells was 10 nM; in the assay with WI-38 cells it was 14100 nM; with NCI-H1048 cells it was 10 nM. For the same compound, the IC50 came out at 20 nM at CyclinA2/CDK2, 20 nM at CyclinB1/CDK1 and 430 nM on CyclinE1/CDK2.
Take `CC(C)C[C@@H]1NC(=O)[C@@H](N(C)C(=O)[C@@H](NC(=O)[C@@H]2C[C@@H](F)CN2C(=O)C2(C(F)(F)F)CC(F)(F)C2)C2CC2)CCCCCCCN(C)C(=O)[C@H](Cc2cc(Cl)ccc2-c2ccc(S(C)(=O)=O)cc2)N(C)C1=O` [Example 262] ({cBuCO(3,3-F2-1-CF3)}-[Pro(trans-4-F)][Gly(cPr)][NMehhhLys(Me)]L[X46]; lactam 3-C): the GI50 in the assay with OVCAR3 cells is 20 nM; in the assay with WI-38 cells, 16200 nM; with NCI-H1048 cells, 10 nM. For the same compound, the IC50 on CyclinA2/CDK2 was 20 nM; on CyclinB1/CDK1, 20 nM; on CyclinE1/CDK2, 910 nM.
Consider `Cc1ccc(Cl)cc1C[C@H]1C(=O)NCCCCCCC[C@H](N(C)C(=O)[C@@H](NC(=O)[C@@H]2C[C@@H](F)CN2C(=O)C2(C(F)(F)F)CC(F)(F)C2)C2CC2)C(=O)N[C@@H](CC(C)C)C(=O)N1C` [Example 270] ({cBuCO(3,3-F2-1-CF3)}-[Pro(trans-4-F)][Gly(cPr)][NMe(hhhLys)]L[X4]; lactam 3-C), for which the 50% growth inhibitory concentration (GI50) in the assay on OVCAR3 cells stood at 70 nM; with WI-38 cells, 13400 nM; in the assay on NCI-H1048 cells, 80 nM. The IC50 on CyclinA2/CDK2 came out at 60 nM; on CyclinB1/CDK1 it was 20 nM; on CyclinE1/CDK2, 370 nM.
For the compound `COc1ncc(Cl)cc1C[C@H]1C(=O)NCCCCCCC[C@H](N(C)C(=O)[C@@H](NC(=O)[C@@H]2C[C@@H](F)CN2C(=O)[C@@]2(C(F)(F)F)CCCCO2)C2CC2)C(=O)N[C@@H](CC(C)C)C(=O)N1C` [Example 274] ({Oxane2carbonyl(2R-CF3)}-[Pro(trans-4-F)][Gly(cPr)][NMe(hhhLys)]L[NMe3Pal(2-OMe,5-Cl)]; lactam 3-C), the figures for the GI50 with OVCAR3 cells, with WI-38 cells and in the assay on NCI-H1048 cells were 10 nM, 10500 nM and 10 nM, respectively. For the same compound, the IC50 amounted to 30 nM at CyclinA2/CDK2, 20 nM on CyclinB1/CDK1 and 100 nM on CyclinE1/CDK2.
As for `CC(C)C[C@@H]1NC(=O)[C@@H](N(C)C(=O)[C@@H](NC(=O)[C@@H]2C[C@@H](F)CN2C(=O)C2(C(F)(F)F)CC(F)(F)C2)C2CC2)CCCCCCCNC(=O)[C@H](Cc2cc(Cl)ccc2-c2cccnc2)N(C)C1=O` [Example 276] ({cBuCO(3,3-F2-1-CF3)}-[Pro(trans-4-F)][Gly(cPr)][NMe(hhhLys)]L[X66]; lactam 3-C), the GI50 turned out to be 20 nM in the assay on OVCAR3 cells, 23400 nM in the assay on WI-38 cells and 20 nM in the assay with NCI-H1048 cells. Further, the IC50 at CyclinA2/CDK2 was 30 nM; on CyclinB1/CDK1 it was 20 nM; on CyclinE1/CDK2, 700 nM.
On to `CC(C)C[C@@H]1NC(=O)[C@@H](N(C)C(=O)[C@@H](NC(=O)[C@@H]2C[C@@H](F)CN2C(=O)[C@@]2(C(F)(F)F)CCCCO2)C2CC2)CCCCCCCN(C)C(=O)[C@H](Cc2cc(Cl)ccc2-c2cnn(S(=O)(=O)C3CC3)c2)N(C)C1=O` [Example 283] ({Oxane2carbonyl(2R-CF3)}-[Pro(trans-4-F)][Gly(cPr)][NMehhhLys(Me)]L[X42]; lactam 3-C), for which the GI50 worked out at 10 nM in the assay on OVCAR3 cells, 14200 nM with WI-38 cells and 10 nM in the assay on NCI-H1048 cells. Also, the half-maximal inhibitory concentration (IC50) on CyclinA2/CDK2 stood at 30 nM; at CyclinB1/CDK1, 20 nM; at CyclinE1/CDK2 it was 180 nM.
`CC(=O)N1CC=C(c2ccc(Cl)cc2C[C@H]2C(=O)NCCC=CCCC[C@H](N(C)C(=O)[C@@H](NC(=O)[C@@H]3C[C@@H](F)CN3C(=O)C3(C(F)(F)F)CC(F)(F)C3)C3CC3)C(=O)N[C@@H](CC(C)C)C(=O)N2C)CC1` [Example 286]: the GI50 with OVCAR3 cells worked out at 50 nM; with WI-38 cells, 6500 nM; with NCI-H1048 cells it was 60 nM. The results for the IC50 on CyclinA2/CDK2, at CyclinB1/CDK1 and at CyclinE1/CDK2 were 80 nM, 20 nM and 4020 nM, respectively.
Take `CC(=O)N1CCC(=Cc2ccc(Cl)cc2C[C@H]2C(=O)NCCCCCCC[C@H](N(C)C(=O)[C@@H](NC(=O)[C@@H]3C[C@@H](F)CN3C(=O)C3(C(F)(F)F)CC(F)(F)C3)C3CC3)C(=O)N[C@@H](CC(C)C)C(=O)N2C)CC1` [Example 288] ({cBuCO(3,3-F2-1-CF3)}-[Pro(trans-4-F)][Gly(cPr)][NMe(hhhLys)]L[X18]; lactam 3-C): the values for the GI50 with OVCAR3 cells, with WI-38 cells and with NCI-H1048 cells were 20 nM, 13800 nM and 20 nM, respectively. The IC50 at CyclinA2/CDK2 was 30 nM; at CyclinB1/CDK1 it was 20 nM; at CyclinE1/CDK2 it was 360 nM.
On to `CC(=O)N1CCC(=Cc2ccc(Cl)cc2C[C@H]2C(=O)N(C)CCCCCCC[C@H](N(C)C(=O)[C@@H](NC(=O)[C@@H]3C[C@@H](F)CN3C(=O)C3(C(F)(F)F)CC(F)(F)C3)C3CC3)C(=O)N[C@@H](CC(C)C)C(=O)N2C)CC1` [Example 289] ({cBuCO(3,3-F2-1-CF3)}-[Pro(trans-4-F)][Gly(cPr)][NMehhhLys(Me)]L[X18]; lactam 3-C), for which the GI50 turned out to be 10 nM in the assay with OVCAR3 cells, 3780 nM with WI-38 cells and 10 nM in the assay on NCI-H1048 cells. Besides, the IC50 on CyclinA2/CDK2 turned out to be 30 nM; on CyclinB1/CDK1, 20 nM; on CyclinE1/CDK2 it was 320 nM.
Regarding `CC(C)C[C@@H]1NC(=O)[C@@H](N(C)C(=O)[C@@H](NC(=O)[C@@H]2C[C@@H](F)CN2C(=O)C2(C(F)(F)F)CC(F)(F)C2)C2CC2)CCCCCCCN(C)C(=O)[C@H](Cc2cc(Cl)ccc2-c2cnn3cccnc23)N(C)C1=O` [Example 297] ({cBuCO(3,3-F2-1-CF3)}-[Pro(trans-4-F)][Gly(cPr)][NMehhhLys(Me)]L[X76]; lactam 3-C), the GI50 in the assay with OVCAR3 cells amounted to 30 nM; in the assay with WI-38 cells, 9150 nM; in the assay with NCI-H1048 cells it was 20 nM. In addition, the IC50 on CyclinA2/CDK2 came to 40 nM; at CyclinB1/CDK1 it was 20 nM; at CyclinE1/CDK2, 1270 nM.
